From PubChem BioAssay (NCI)
Where “and” joins values, the source holds several entries; their conditions need not be identical. Equal entries are not always repeated.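 Briefly, cells in 96-well plates were exposed to five compound concentrations for 48 h, and endpoints were estimated by linear interpolation. GI50 is the concentration that inhibits growth by half. TGI: concentration producing complete growth inhibition.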

Assays:
Assay in all cases: DTP human tumour cell line panel, 48 h
DU-145 prostate = system: DU-145 prostate
HL-60(TB) leukemia = system: HL-60(TB) leukemia
IGROV1 ovarian = system: IGROV1 ovarian
LOX IMVI melanoma = system: LOX IMVI melanoma
M14 melanoma = system: M14 melanoma
MCF7 breast = system: MCF7 breast
OVCAR-4 ovarian = system: OVCAR-4 ovarian
OVCAR-8 ovarian = system: OVCAR-8 ovarian
SF-268 CNS = system: SF-268 CNS
UACC-62 melanoma = system: UACC-62 melanoma

| Structure (SMILES) | TGI (DU-145 prostate) | TGI (HL-60(TB) leukemia) | TGI (IGROV1 ovarian) | TGI (LOX IMVI melanoma) | TGI (M14 melanoma) | GI50 (MCF7 breast) | TGI (MCF7 breast) | TGI (OVCAR-4 ovarian) | TGI (OVCAR-8 ovarian) | TGI (SF-268 CNS) | TGI (UACC-62 melanoma) | GI50 (DU-145 prostate) | GI50 (HL-60(TB) leukemia) | GI50 (IGROV1 ovarian) | GI50 (LOX IMVI melanoma) | GI50 (M14 melanoma) | GI50 (OVCAR-4 ovarian) | GI50 (OVCAR-8 ovarian) | GI50 (SF-268 CNS) | GI50 (UACC-62 melanoma) |
| --- | --- | --- | --- | --- | --- | --- | --- | --- | --- | --- | --- | --- | --- | --- | --- | --- | --- | --- | --- | --- |
| CCN(CC)CCNc1n[n+]([O-])c2ccccc2[n+]1[O-] | 48.4 µM and 47.9 µM | 7.61 µM and 8.95 µM | 10.3 µM and 17 µM | 28.3 µM | 21 µM and 28.7 µM | 5430 nM and 2550 nM | 37.6 µM and 26.2 µM | 11.2 µM and 73.6 µM | 31.1 µM and 27 µM | 48.4 µM and > 100 µM | 22.2 µM and 21.2 µM | – | – | – | – | – | – | – | – | – |
| O=Cc1ccc(-c2cccs2)s1 | > 100 µM | > 68.1 µM | 47.4 µM | > 100 µM | > 100 µM | – | 17.6 µM | > 77 µM | > 100 µM | > 100 µM | 4.42 µM | – | – | – | – | – | – | – | – | – |
| COc1ccc(-c2cn[nH]c2-c2cc(OC)c3c(c2)OCCO3)cc1 | 16.9 µM | 13 µM | 39.6 µM | 15.2 µM | 21.1 µM | 61 nM | 32.6 µM | > 100 µM | 21 µM | > 74.2 µM | 17.6 µM | 312 nM | 81.5 nM | 384 nM | 581 nM | 69.4 nM | 1030 nM | 363 nM | 1030 nM | 75.8 nM |
| O=C1NC2(CN3CCC2CC3)C(=O)N1CN(Cc1ccccc1)c1ccccc1 (centres undefined) | > 100 µM | 44.7 µM | > 100 µM | > 100 µM | > 100 µM | – | > 100 µM | > 100 µM | > 100 µM | > 100 µM | > 100 µM | – | – | – | – | – | – | – | – | – |
| O=C1CCCN1CC#CCN1CCCC1 | > 100 µM | > 100 µM | > 100 µM | > 100 µM | > 100 µM | > 100000 nM | > 100 µM | > 100 µM | > 100 µM | > 100 µM | > 100 µM | > 100000 nM | > 100000 nM | > 100000 nM | > 100000 nM | > 100000 nM | > 100000 nM | > 100000 nM | > 100000 nM | > 100000 nM |
| CC(=O)Nc1ccc(S(=O)(=O)NNC(=O)c2cccnc2Nc2ccc(Cl)cc2)cc1 | > 100 µM | > 100 µM | > 100 µM | > 100 µM | > 100 µM | 4340 nM | > 100 µM | > 100 µM | > 100 µM | > 100 µM | > 100 µM | 34300 nM | 9670 nM | 27300 nM | 24000 nM | 11500 nM | 44900 nM | 36200 nM | 22000 nM | 8850 nM |
| Cc1cc(=O)oc2cc(O)c(CN(C)CC(=O)O)cc12 | > 100 µM | > 100 µM | > 100 µM | > 100 µM | > 100 µM | – | > 100 µM | > 100 µM | > 100 µM | > 100 µM | > 100 µM | – | – | – | – | – | – | – | – | – |
| COc1cc(Cn2c(-c3nonc3N)nc3ccccc32)ccc1C | > 37.8 µM | 50.8 µM | > 61.6 µM | > 100 µM | 34.8 µM | 348 nM | > 100 µM | > 95.2 µM | > 100 µM | > 100 µM | > 100 µM | 605 nM | 345 nM | 1220 nM | 649 nM | 426 nM | 731 nM | 729 nM | 825 nM | 848 nM |
| Nc1ccc(S(=O)(=O)NCc2nccs2)cc1 | 95.5 µM | 44 µM | 56.8 µM | 41.7 µM | 37.2 µM | – | 61.4 µM | 95.7 µM | > 100 µM | 46.3 µM | 41.8 µM | – | – | – | – | – | – | – | – | – |
| CC[C@@]1(O)C(=O)OCc2c1cc1n(c2=O)Cc2cc3cc(N)ccc3nc2-1 | – | 1.03 µM | 3.06 µM and 2.21 µM | 0.207 µM and 0.0665 µM | 0.404 µM and 0.0409 µM | 1.65 nM | 5.73 µM | 0.233 µM | 0.412 µM and 0.198 µM | 1.04 µM and 0.146 µM | 0.0393 µM and < 0.021 µM | 14.4 nM | 71.8 nM | 56 nM | 20.2 nM | 16.2 nM | 48 nM and 169 nM | 21.8 nM | – | 2.12 nM |
